{"source": "patent US6906205B2", "about": "“Spiro and dispiro 1,2,4-trioxolane antimalarials” (Medicines for Malaria Venture MMV, priority 2002, dated 2005)", "data": [{"system": "ANKA strain of P. berghei", "experiment": "single dose STI in vivo screen in infected mice", "design": "species or system Plasmodium berghei", "settings": "percent reduction in parasitemia day 3 post-infection; single 10 mg/kg po in 3% ethanol and 7% Tween 80; mice", "experimental": "(§1) In the single dose STI in vivo screen, Moro SPF or NMRI mice infected with the ANKA strain of P. berghei (groups of 3-5 mice) were treated on day one post-infection with trioxolanes dissolved or suspended in 3% ethanol and 7% Tween 80. […] SSV consists of 0.5% w/v CMC, 0.5% v/v benzyl alcohol, 0.4% v/v Tween 80, and 0.9% w/v sodium chloride in water. Antimalarial activity was measured by percent reduction in parasitemia on day three post-infection and survival times compared to an untreated control group. Survival to day 30 post-infection is considered to be a cure. […] Other factors influencing antimalarial activity include the stability of carbon radicals formed by β-scission subsequent to the initial electron transfer to the peroxide bond and the influence of steric effects remote from the peroxide bond on the interactions between carbon radicals and potential drug targets.", "values": [{"smiles": "O=C(NC[C@H]1CC[C@]2(CC1)OOC1(O2)C2CC3CC(C2)CC1C3)c1c[nH]cn1", "note": "(stereo partly drawn) [OZ263]", "Activity (%) po": "99.53%"}, {"smiles": "C(CNC1CCC2(CC1)OOC1(O2)C2CC3CC(C2)CC1C3)CN1CCOCC1", "note": "(stereo not drawn) [OZ161]", "Activity (%) po": "59%"}, {"smiles": "O=C(O)CON=C1CCC2(CC1)OOC1(O2)C2CC3CC(C2)CC1C3", "note": "(stereo not drawn) [OZ54]", "Activity (%) po": "85%"}, {"smiles": "O=C1CCC2(CC1)OOC1(CCCCC1)O2", "note": "[OZ02]", "Activity (%) po": "0/NA/0^1%"}, {"smiles": "c1ccc(C2(c3ccccc3)CCC3(CC2)OOC2(O3)C3CC4CC(C3)CC2C4)cc1", "note": "(stereo not drawn) [OZ34]", "Activity (%) po": "0/NA/0%"}, {"smiles": "N#CC1(c2ccccc2)CCC2(CC1)OOC1(O2)C2CC3CC(C2)CC1C3", "note": "(stereo not drawn) [OZ63]", "Activity (%) po": "99.62%"}]}, {"system": "ANKA strain of P. berghei", "experiment": "single dose STI in vivo screen in infected mice", "design": "species or system Plasmodium berghei", "settings": "percent reduction in parasitemia day 3 post-infection; single 10 mg/kg sc in 3% ethanol and 7% Tween 80; mice", "experimental": "as §1", "values": [{"smiles": "O=C(NC[C@H]1CC[C@]2(CC1)OOC1(O2)C2CC3CC(C2)CC1C3)c1c[nH]cn1", "note": "(stereo partly drawn) [OZ263]", "Activity (%) sc": "99.92%"}, {"smiles": "C(CNC1CCC2(CC1)OOC1(O2)C2CC3CC(C2)CC1C3)CN1CCOCC1", "note": "(stereo not drawn) [OZ161]", "Activity (%) sc": "99.96%"}, {"smiles": "O=C(O)CON=C1CCC2(CC1)OOC1(O2)C2CC3CC(C2)CC1C3", "note": "(stereo not drawn) [OZ54]", "Activity (%) sc": "97%"}, {"smiles": "O=C1CCC2(CC1)OOC1(CCCCC1)O2", "note": "[OZ02]", "Activity (%) sc": "0/NA/0^1%"}, {"smiles": "c1ccc(C2(c3ccccc3)CCC3(CC2)OOC2(O3)C3CC4CC(C3)CC2C4)cc1", "note": "(stereo not drawn) [OZ34]", "Activity (%) sc": "0/NA/0%"}, {"smiles": "N#CC1(c2ccccc2)CCC2(CC1)OOC1(O2)C2CC3CC(C2)CC1C3", "note": "(stereo not drawn) [OZ63]", "Activity (%) sc": "99.91%"}]}, {"system": "ANKA strain of P. berghei", "experiment": "single dose STI in vivo screen in infected mice", "design": "species or system Plasmodium berghei", "settings": "percent reduction in parasitemia day 3 post-infection; single po dose in standard suspending vehicle (SSV); mice", "experimental": "as §1", "units": {"Activity (%) SSVpo": "%"}, "values": [{"smiles": "O=C(NC[C@H]1CC[C@]2(CC1)OOC1(O2)C2CC3CC(C2)CC1C3)c1c[nH]cn1", "note": "(stereo partly drawn) [OZ263]", "Activity (%) SSVpo": 99.45}, {"smiles": "C(CNC1CCC2(CC1)OOC1(O2)C2CC3CC(C2)CC1C3)CN1CCOCC1", "note": "(stereo not drawn) [OZ161]", "Activity (%) SSVpo": 46}, {"smiles": "N#CC1(c2ccccc2)CCC2(CC1)OOC1(O2)C2CC3CC(C2)CC1C3", "note": "(stereo not drawn) [OZ63]", "Activity (%) SSVpo": 65}]}, {"system": "ANKA strain of P. berghei", "experiment": "single dose STI in vivo screen in infected mice", "design": "species or system Plasmodium berghei", "settings": "single 10 mg/kg po in 3% ethanol and 7% Tween 80; untreated control 5.6 ± 0.3", "experimental": "as §1", "values": [{"smiles": "O=C(NC[C@H]1CC[C@]2(CC1)OOC1(O2)C2CC3CC(C2)CC1C3)c1c[nH]cn1", "note": "(stereo partly drawn) [OZ263]", "Survival (days) po": "13.0 days"}, {"smiles": "C(CNC1CCC2(CC1)OOC1(O2)C2CC3CC(C2)CC1C3)CN1CCOCC1", "note": "(stereo not drawn) [OZ161]", "Survival (days) po": "7.0 days"}, {"smiles": "O=C(O)CON=C1CCC2(CC1)OOC1(O2)C2CC3CC(C2)CC1C3", "note": "(stereo not drawn) [OZ54]", "Survival (days) po": "7.0/NA/7.0 days"}, {"smiles": "O=C1CCC2(CC1)OOC1(CCCCC1)O2", "note": "[OZ02]", "Survival (days) po": "5.0/NA/5.0^1 days"}, {"smiles": "c1ccc(C2(c3ccccc3)CCC3(CC2)OOC2(O3)C3CC4CC(C3)CC2C4)cc1", "note": "(stereo not drawn) [OZ34]", "Survival (days) po": "5.3 days"}, {"smiles": "N#CC1(c2ccccc2)CCC2(CC1)OOC1(O2)C2CC3CC(C2)CC1C3", "note": "(stereo not drawn) [OZ63]", "Survival (days) po": "7.3 days"}]}, {"system": "ANKA strain of P. berghei", "experiment": "single dose STI in vivo screen in infected mice", "design": "species or system Plasmodium berghei", "settings": "single 10 mg/kg sc in 3% ethanol and 7% Tween 80; untreated control 5.6 ± 0.3", "experimental": "as §1", "values": [{"smiles": "O=C(NC[C@H]1CC[C@]2(CC1)OOC1(O2)C2CC3CC(C2)CC1C3)c1c[nH]cn1", "note": "(stereo partly drawn) [OZ263]", "Survival (days) sc": "11.0 days"}, {"smiles": "C(CNC1CCC2(CC1)OOC1(O2)C2CC3CC(C2)CC1C3)CN1CCOCC1", "note": "(stereo not drawn) [OZ161]", "Survival (days) sc": "12.7 days"}, {"smiles": "O=C(O)CON=C1CCC2(CC1)OOC1(O2)C2CC3CC(C2)CC1C3", "note": "(stereo not drawn) [OZ54]", "Survival (days) sc": "7.0/NA/7.0 days"}, {"smiles": "O=C1CCC2(CC1)OOC1(CCCCC1)O2", "note": "[OZ02]", "Survival (days) sc": "5.0/NA/5.0^1 days"}, {"smiles": "c1ccc(C2(c3ccccc3)CCC3(CC2)OOC2(O3)C3CC4CC(C3)CC2C4)cc1", "note": "(stereo not drawn) [OZ34]", "Survival (days) sc": "5.7 days"}, {"smiles": "N#CC1(c2ccccc2)CCC2(CC1)OOC1(O2)C2CC3CC(C2)CC1C3", "note": "(stereo not drawn) [OZ63]", "Survival (days) sc": "9.3 days"}]}, {"system": "ANKA strain of P. berghei", "experiment": "single dose STI in vivo screen in infected mice", "design": "species or system Plasmodium berghei", "settings": "single po dose in SSV; untreated control 5.6 ± 0.3", "experimental": "as §1", "units": {"Survival (days) SSVpo": "days"}, "values": [{"smiles": "O=C(NC[C@H]1CC[C@]2(CC1)OOC1(O2)C2CC3CC(C2)CC1C3)c1c[nH]cn1", "note": "(stereo partly drawn) [OZ263]", "Survival (days) SSVpo": 13.3}, {"smiles": "C(CNC1CCC2(CC1)OOC1(O2)C2CC3CC(C2)CC1C3)CN1CCOCC1", "note": "(stereo not drawn) [OZ161]", "Survival (days) SSVpo": 6.7}, {"smiles": "N#CC1(c2ccccc2)CCC2(CC1)OOC1(O2)C2CC3CC(C2)CC1C3", "note": "(stereo not drawn) [OZ63]", "Survival (days) SSVpo": 6.0}]}, {"system": "P. falciparum NF54 strain (sensitive to standard antimalarials)", "experiment": "semiautomated microdilution assay, [3H]-hypoxanthine incorporation, NF54 strain", "type": "cell-based, Plasmodium falciparum", "settings": "NF54 strain, 72 h incubation", "experimental": "(§2) Various OZ compounds were tested by the semiautomated microdilution assay against intraerythrocytic forms of Plasmodium falciparum derived from asynchronous stock cultures.\n(§3) Fifty percent inhibitory concentration (IC50) were estimated by Logit regression analysis.", "values": [{"smiles": "O=C(NC[C@H]1CC[C@]2(CC1)OOC1(O2)C2CC3CC(C2)CC1C3)c1c[nH]cn1", "note": "(stereo partly drawn) [OZ263]", "IC50 (ng/ml) NF54": "1.1 ng/mL"}, {"smiles": "C(CNC1CCC2(CC1)OOC1(O2)C2CC3CC(C2)CC1C3)CN1CCOCC1", "note": "(stereo not drawn) [OZ161]", "IC50 (ng/ml) NF54": "0.50 ng/mL"}, {"smiles": "O=C(O)CON=C1CCC2(CC1)OOC1(O2)C2CC3CC(C2)CC1C3", "note": "(stereo not drawn) [OZ54]", "IC50 (ng/ml) NF54": "35 ng/mL"}, {"smiles": "O=C1CCC2(CC1)OOC1(CCCCC1)O2", "note": "[OZ02]", "IC50 (ng/ml) NF54": "94 ng/mL"}, {"smiles": "c1ccc(C2(c3ccccc3)CCC3(CC2)OOC2(O3)C3CC4CC(C3)CC2C4)cc1", "note": "(stereo not drawn) [OZ34]", "IC50 (ng/ml) NF54": "60 ng/mL"}, {"smiles": "N#CC1(c2ccccc2)CCC2(CC1)OOC1(O2)C2CC3CC(C2)CC1C3", "note": "(stereo not drawn) [OZ63]", "IC50 (ng/ml) NF54": "1.6/1.6 ng/ml"}]}, {"system": "P. falciparum K1 strain (Thailand resistant to chloroquine)", "experiment": "semiautomated microdilution assay, [3H]-hypoxanthine incorporation, K1 strain", "type": "cell-based, Plasmodium falciparum", "settings": "K1 strain, 72 h incubation", "experimental": "as §2, §3", "values": [{"smiles": "O=C(NC[C@H]1CC[C@]2(CC1)OOC1(O2)C2CC3CC(C2)CC1C3)c1c[nH]cn1", "note": "(stereo partly drawn) [OZ263]", "IC50 (ng/ml) K1": "0.84 ng/mL"}, {"smiles": "C(CNC1CCC2(CC1)OOC1(O2)C2CC3CC(C2)CC1C3)CN1CCOCC1", "note": "(stereo not drawn) [OZ161]", "IC50 (ng/ml) K1": "0.40 ng/mL"}, {"smiles": "O=C(O)CON=C1CCC2(CC1)OOC1(O2)C2CC3CC(C2)CC1C3", "note": "(stereo not drawn) [OZ54]", "IC50 (ng/ml) K1": "32 ng/mL"}, {"smiles": "O=C1CCC2(CC1)OOC1(CCCCC1)O2", "note": "[OZ02]", "IC50 (ng/ml) K1": "> 100 ng/mL"}, {"smiles": "c1ccc(C2(c3ccccc3)CCC3(CC2)OOC2(O3)C3CC4CC(C3)CC2C4)cc1", "note": "(stereo not drawn) [OZ34]", "IC50 (ng/ml) K1": "42 ng/mL"}, {"smiles": "N#CC1(c2ccccc2)CCC2(CC1)OOC1(O2)C2CC3CC(C2)CC1C3", "note": "(stereo not drawn) [OZ63]", "IC50 (ng/ml) K1": "1.6/1.6 ng/ml"}]}]}
